# According to patent publication EP0908457B1, “3-(1,2-benzisothiazol- and isoxazol-5-Y1)-2,4(1H,3H)-pyrimidinedione or thione and 3-(1,2-benzisothiazol- and isoxazol-5-y1)-4(3H)-pyrimidinone or thione herbicidal agents” (BASF AKTIENGESELLSCHAFT, priority 1997, dated 1999):
# Assays:
# [1] = test system: Oryza sativa, (L.) Tebonnet; assay: Rice tolerance to post-transplant applications under flooded paddy conditions (Example 187), ORYSAT (Rice, Tebonnet); on herbicidal effect rating ORYSAT: meaning of each grade not given here
# Cyperus iria = assay: Preemergence weed control under flooded paddy conditions, CYPIR (Rice Flatsedge); format: in vivo; settings: preemergence, flooded paddy; on herbicidal effect rating, CYPIR: meaning of each grade not given here
# [2] = test system: Cyperus serotinus, Rottb.; assay: Preemergence weed control under flooded paddy conditions, CYPSE (Flatsedge); format: in vivo; settings: preemergence; on herbicidal effect rating, CYPSE: meaning of each grade not given here
# [3] = test system: Echinochloa oryzoides (Ard.) Fritsch.; assay: Preemergence weed control under flooded paddy conditions, ECHORC (Watergrass (Calif.)); format: in vivo; settings: preemergence, flooded paddy; on herbicidal effect rating, ECHORC: meaning of each grade not given here
# [4] = test system: Monochoria vaginalis, Presl.; assay: Preemergence weed control under flooded paddy conditions, MOOVA (Monochoria); format: in vivo; settings: preemergence, flooded paddy; on herbicidal effect rating, MOOVA: meaning of each grade not given here
# Sagittaria pygmaea, L. = assay: Preemergence weed control under flooded paddy conditions, SAGPY (Arrowhead (Pygmaea)); format: in vivo; settings: preemergence, flooded paddy; on herbicidal effect rating, SAGPY: meaning of each grade not given here
# [5] = Rate 0.0320 kg/ha, rated three to four weeks after treatment
# [6] = Rate 0.0620 kg/ha, rated three to four weeks after treatment
# [7] = Rate 0.1250 kg/ha, rated three to four weeks after treatment
# [8] = Rate 0.2500 kg/ha, rated three to four weeks after treatment
# [9] = Rate 0.0320 kg/ha, rated 3-4 weeks after treatment
# [10] = Rate 0.0620 kg/ha, rated 3-4 weeks after treatment
# [11] = Rate 0.1250 kg/ha, rated 3-4 weeks after treatment
# [12] = Rate 0.2500 kg/ha, rated 3-4 weeks after treatment
# [13] = Rate 0.5000 kg/ha, rated 3-4 weeks after treatment
# [14] = Rate 0.0313 kg/ha, rated three to four weeks after treatment
# [15] = Rate 0.0625 kg/ha, rated three to four weeks after treatment
smiles,measurement,setting,value
"CCSCCOC(=O)c1nsc2ccc(-n3c(=O)cc(C(F)(F)F)n(C)c3=O)cc12 [Example 385, 1,2-Benzisothiazole-3-carboxylic acid, 5-[3,6-dihydro-3-methyl-2,6-dioxo-4-(trifluoromethyl)-1(2H)-pyrimidinyl]-, 2-(ethylthio)ethyl ester]",herbicidal effect rating ORYSAT,[1]; [5],3.0
same,herbicidal effect rating ORYSAT,[1]; [6],5.0
same,herbicidal effect rating ORYSAT,[1]; [7],7.0
same,herbicidal effect rating ORYSAT,[1]; [8],7.0
same,"herbicidal effect rating, CYPIR",Cyperus iria; [5],4.0
same,"herbicidal effect rating, CYPIR",Cyperus iria; [6],6.0
same,"herbicidal effect rating, CYPIR",Cyperus iria; [7],6.0
same,"herbicidal effect rating, CYPIR",Cyperus iria; [8],9.0
same,"herbicidal effect rating, CYPSE",[2]; [5],6.0
same,"herbicidal effect rating, CYPSE",[2]; [6],6.0
same,"herbicidal effect rating, CYPSE",[2]; [7],7.0
same,"herbicidal effect rating, CYPSE",[2]; [8],7.0
same,"herbicidal effect rating, ECHORC",[3]; [5],0.0
same,"herbicidal effect rating, ECHORC",[3]; [6],3.0
same,"herbicidal effect rating, ECHORC",[3]; [7],3.0
same,"herbicidal effect rating, ECHORC",[3]; [8],6.0
same,"herbicidal effect rating, MOOVA",[4]; [5],9.0
same,"herbicidal effect rating, MOOVA",[4]; [6],9.0
same,"herbicidal effect rating, MOOVA",[4]; [7],9.0
same,"herbicidal effect rating, MOOVA",[4]; [8],9.0
same,"herbicidal effect rating, SAGPY","Sagittaria pygmaea, L.; [5]",0.0
same,"herbicidal effect rating, SAGPY","Sagittaria pygmaea, L.; [6]",0.0
same,"herbicidal effect rating, SAGPY","Sagittaria pygmaea, L.; [7]",9.0
same,"herbicidal effect rating, SAGPY","Sagittaria pygmaea, L.; [8]",9.0
"COCCCOCCCOC(=O)COc1ccc(C)cc1-c1nsc2ccc(-n3c(=O)cc(C(F)(F)F)n(C)c3=O)cc12 [Example 523, Acetic acid, {{2-{5-[3,6-dihydro-3-methyl-2,6-dioxo-4-(trifluoromethyl)-1(2H)-pyrimidinyl]-1,2-benzisothiazol-3-yl}-p-tolyl}oxy}-, 3-(3-methoxypropoxy)propyl ester]",herbicidal effect rating ORYSAT,[1]; [9],4.5
same,herbicidal effect rating ORYSAT,[1]; [10],4.5
same,herbicidal effect rating ORYSAT,[1]; [11],5.5
same,herbicidal effect rating ORYSAT,[1]; [12],7.0
same,"herbicidal effect rating, CYPIR",Cyperus iria; [9],0.0
same,"herbicidal effect rating, CYPIR",Cyperus iria; [10],2.0
same,"herbicidal effect rating, CYPIR",Cyperus iria; [11],4.0
same,"herbicidal effect rating, CYPIR",Cyperus iria; [12],8.0
same,"herbicidal effect rating, CYPSE",[2]; [9],0.0
same,"herbicidal effect rating, CYPSE",[2]; [10],0.0
same,"herbicidal effect rating, CYPSE",[2]; [11],2.0
same,"herbicidal effect rating, CYPSE",[2]; [12],9.0
same,"herbicidal effect rating, ECHORC",[3]; [9],6.0
same,"herbicidal effect rating, ECHORC",[3]; [10],8.0
same,"herbicidal effect rating, ECHORC",[3]; [11],8.0
same,"herbicidal effect rating, ECHORC",[3]; [12],9.0
same,"herbicidal effect rating, MOOVA",[4]; [9],8.0
same,"herbicidal effect rating, MOOVA",[4]; [10],9.0
same,"herbicidal effect rating, MOOVA",[4]; [11],9.0
same,"herbicidal effect rating, MOOVA",[4]; [12],9.0
same,"herbicidal effect rating, SAGPY","Sagittaria pygmaea, L.; [9]",0.0
same,"herbicidal effect rating, SAGPY","Sagittaria pygmaea, L.; [10]",0.0
same,"herbicidal effect rating, SAGPY","Sagittaria pygmaea, L.; [11]",0.0
same,"herbicidal effect rating, SAGPY","Sagittaria pygmaea, L.; [12]",0.0
"CNC(=O)COc1ccc(C)cc1-c1nsc2ccc(-n3c(=O)cc(C(F)(F)F)n(C)c3=O)cc12 [Example 561, Acetamide, 2-{{2-{5-[3,6-dihydro-3-methyl-2,6-dioxo-4-(trifluoromethyl)-1(2H)-pyrimidinyl]-1,2-benzisothiazol-3-yl}-p-tolyl}oxy}-N-methyl-]",herbicidal effect rating ORYSAT,[1]; [9],2.5
same,herbicidal effect rating ORYSAT,[1]; [10],4.0
same,herbicidal effect rating ORYSAT,[1]; [11],3.5
same,herbicidal effect rating ORYSAT,[1]; [12],4.5
same,herbicidal effect rating ORYSAT,[1]; [13],2.0
same,"herbicidal effect rating, CYPIR",Cyperus iria; [9],3.0
same,"herbicidal effect rating, CYPIR",Cyperus iria; [10],6.0
same,"herbicidal effect rating, CYPIR",Cyperus iria; [11],8.5
same,"herbicidal effect rating, CYPIR",Cyperus iria; [12],9.0
same,"herbicidal effect rating, CYPIR",Cyperus iria; [13],6.0
same,"herbicidal effect rating, CYPSE",[2]; [9],0.0
same,"herbicidal effect rating, CYPSE",[2]; [10],0.0
same,"herbicidal effect rating, CYPSE",[2]; [11],0.0
same,"herbicidal effect rating, CYPSE",[2]; [12],0.0
same,"herbicidal effect rating, CYPSE",[2]; [13],9.0
same,"herbicidal effect rating, ECHORC",[3]; [9],3.6
same,"herbicidal effect rating, ECHORC",[3]; [10],4.8
same,"herbicidal effect rating, ECHORC",[3]; [11],6.4
same,"herbicidal effect rating, ECHORC",[3]; [12],9.0
same,"herbicidal effect rating, ECHORC",[3]; [13],9.0
same,"herbicidal effect rating, MOOVA",[4]; [9],9.0
same,"herbicidal effect rating, MOOVA",[4]; [10],9.0
same,"herbicidal effect rating, MOOVA",[4]; [11],9.0
same,"herbicidal effect rating, MOOVA",[4]; [12],9.0
same,"herbicidal effect rating, MOOVA",[4]; [13],9.0
same,"herbicidal effect rating, SAGPY","Sagittaria pygmaea, L.; [9]",0.0
same,"herbicidal effect rating, SAGPY","Sagittaria pygmaea, L.; [10]",0.0
same,"herbicidal effect rating, SAGPY","Sagittaria pygmaea, L.; [11]",1.0
same,"herbicidal effect rating, SAGPY","Sagittaria pygmaea, L.; [12]",3.0
same,"herbicidal effect rating, SAGPY","Sagittaria pygmaea, L.; [13]",0.0
"CC(C)=CCOCc1nsc2ccc(-n3c(=O)cc(C(F)(F)F)n(C)c3=O)cc12 [Example 210, 1-Methyl-3-{3-[(3-methyl-2-butenyloxy)methyl]-1,2-benzisothiazol-5-yl}-6-(trifluoromethyl)-2,4(1H,3H)-pyrimidinedione]",ORYSAT herbicidal effect rating,[1]; [14],3.0
same,ORYSAT herbicidal effect rating,[1]; [15],4.0
same,ORYSAT herbicidal effect rating,[1]; [7],6.0
same,ORYSAT herbicidal effect rating,[1]; [8],7.0
same,CYPIR herbicidal effect rating,Cyperus iria; [14],2.0
same,CYPIR herbicidal effect rating,Cyperus iria; [15],7.0
same,CYPIR herbicidal effect rating,Cyperus iria; [8],7.0
same,CYPSE herbicidal effect rating,[2]; [14],0.0
same,CYPSE herbicidal effect rating,[2]; [15],0.0
same,CYPSE herbicidal effect rating,[2]; [7],0.0
same,CYPSE herbicidal effect rating,[2]; [8],0.0
same,ECHORC herbicidal effect rating,[3]; [14],9.0
same,ECHORC herbicidal effect rating,[3]; [15],9.0
same,ECHORC herbicidal effect rating,[3]; [7],9.0
same,ECHORC herbicidal effect rating,[3]; [8],9.0
same,MOOVA herbicidal effect rating,[4]; [14],9.0
same,MOOVA herbicidal effect rating,[4]; [15],9.0
same,MOOVA herbicidal effect rating,[4]; [7],9.0
same,MOOVA herbicidal effect rating,[4]; [8],9.0
same,SAGPY herbicidal effect rating,"Sagittaria pygmaea, L.; [14]",0.0
same,SAGPY herbicidal effect rating,"Sagittaria pygmaea, L.; [15]",0.0
same,SAGPY herbicidal effect rating,"Sagittaria pygmaea, L.; [7]",0.0
same,SAGPY herbicidal effect rating,"Sagittaria pygmaea, L.; [8]",0.0
"C=CCC(C#N)(CC=C)c1nsc2ccc(-n3c(=O)cc(C(F)(F)F)n(C)c3=O)cc12 [Example 580, 1,2-Benzisothiazole-3-acetonitrile, alpha,alpha-diallyl-5-[3,6-dihydro-3-methyl-2,6-dioxo-4-(trifluoromethyl)-1(2H)-pyrimidinyl]-]",herbicidal effect rating ORYSAT,[1]; [5],1.5
same,herbicidal effect rating ORYSAT,[1]; [6],4.0
same,herbicidal effect rating ORYSAT,[1]; [7],4.0
same,herbicidal effect rating ORYSAT,[1]; [8],6.5
same,"herbicidal effect rating, CYPIR",Cyperus iria; [5],3.0
same,"herbicidal effect rating, CYPIR",Cyperus iria; [6],9.0
same,"herbicidal effect rating, CYPIR",Cyperus iria; [7],9.0
same,"herbicidal effect rating, CYPIR",Cyperus iria; [8],9.0
same,"herbicidal effect rating, CYPSE",[2]; [5],5.5
same,"herbicidal effect rating, CYPSE",[2]; [6],9.0
same,"herbicidal effect rating, CYPSE",[2]; [7],9.0
same,"herbicidal effect rating, CYPSE",[2]; [8],8.5
same,"herbicidal effect rating, ECHORC",[3]; [5],8.5
same,"herbicidal effect rating, ECHORC",[3]; [6],9.0
same,"herbicidal effect rating, ECHORC",[3]; [7],9.0
same,"herbicidal effect rating, ECHORC",[3]; [8],9.0
same,"herbicidal effect rating, MOOVA",[4]; [5],4.5
same,"herbicidal effect rating, MOOVA",[4]; [6],9.0
same,"herbicidal effect rating, MOOVA",[4]; [7],9.0
same,"herbicidal effect rating, MOOVA",[4]; [8],9.0
same,"herbicidal effect rating, SAGPY","Sagittaria pygmaea, L.; [5]",5.5
same,"herbicidal effect rating, SAGPY","Sagittaria pygmaea, L.; [6]",8.0
same,"herbicidal effect rating, SAGPY","Sagittaria pygmaea, L.; [7]",8.0
same,"herbicidal effect rating, SAGPY","Sagittaria pygmaea, L.; [8]",8.5
"Cn1c(C(F)(F)F)cc(=O)n(-c2cc3c(CBr)nsc3cc2F)c1=O [Example 376, 2,4(1H,3H)-Pyrimidinedione, 3-[3-(bromomethyl)-6-fluoro-1,2-benzisothiazol-5-yl]-1-methyl-6-(trifluoromethyl)-]",herbicidal effect rating ORYSAT,[1]; [5],4.0
same,herbicidal effect rating ORYSAT,[1]; [6],6.0
same,herbicidal effect rating ORYSAT,[1]; [7],6.0
same,herbicidal effect rating ORYSAT,[1]; [8],8.5
same,"herbicidal effect rating, CYPIR",Cyperus iria; [5],3.0
same,"herbicidal effect rating, CYPIR",Cyperus iria; [6],8.0
same,"herbicidal effect rating, CYPIR",Cyperus iria; [7],9.0
same,"herbicidal effect rating, CYPIR",Cyperus iria; [8],9.0
same,"herbicidal effect rating, CYPSE",[2]; [5],3.0
same,"herbicidal effect rating, CYPSE",[2]; [6],4.0
same,"herbicidal effect rating, CYPSE",[2]; [7],5.5
same,"herbicidal effect rating, CYPSE",[2]; [8],8.0
same,"herbicidal effect rating, ECHORC",[3]; [5],3.0
same,"herbicidal effect rating, ECHORC",[3]; [6],5.5
same,"herbicidal effect rating, ECHORC",[3]; [7],6.5
same,"herbicidal effect rating, ECHORC",[3]; [8],9.0
same,"herbicidal effect rating, MOOVA",[4]; [5],9.0
same,"herbicidal effect rating, MOOVA",[4]; [6],9.0
same,"herbicidal effect rating, MOOVA",[4]; [7],9.0
same,"herbicidal effect rating, MOOVA",[4]; [8],9.0
same,"herbicidal effect rating, SAGPY","Sagittaria pygmaea, L.; [5]",8.0
same,"herbicidal effect rating, SAGPY","Sagittaria pygmaea, L.; [6]",8.5
same,"herbicidal effect rating, SAGPY","Sagittaria pygmaea, L.; [7]",9.0
same,"herbicidal effect rating, SAGPY","Sagittaria pygmaea, L.; [8]",9.0
